Measured values taken from patent US12398154B2, “Azaquinazoline pan-KRas inhibitors” (Mirati Therapeutics, Inc., priority 2020, dated 2025).

Legend:
pERK in MKN1 cells = test: Inhibition of KRas phosphorylation of ERK (Cisbio HTRF pERK assay); conditions: Homo sapiens, MKN-1, 3 h, read-out: Inhibition (HTRF IC50) of KRas-mediated Phosphorylation of ERK, MKN1
KRas G12D = KRas G12D (Homo sapiens, UniProt P01116, G12D); test: biochemical;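 further: TR-FRET displacement binding assay on KRas, read after a one-hour incubation at room temperature, IC50 fitted from percent-of-control values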
KRas G12D, sequence (P01116 1-169 isoform P01116-2 G12D): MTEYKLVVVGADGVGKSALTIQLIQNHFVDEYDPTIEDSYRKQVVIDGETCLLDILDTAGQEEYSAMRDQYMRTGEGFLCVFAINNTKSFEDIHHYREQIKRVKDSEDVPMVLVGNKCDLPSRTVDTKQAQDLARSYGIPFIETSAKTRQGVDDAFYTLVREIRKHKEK
Protocol: (§2) The ability of a compound to bind to KRas was measured using a TR-FRET displacement assay. […] After a 60-minute incubation at room temperature, the reaction was measured using a BMG LABTECH CLARIO star Plus via TR-FRET. […] The POC values were fit to a 4-parameter IC50 equation and the IC50 value reported.

pERK in PSN1 cells = test: Inhibition of KRas phosphorylation of ERK (Cisbio HTRF pERK assay); conditions: Homo sapiens, PSN1, 3 h, read-out: Inhibition (HTRF IC50) of KRas-mediated Phosphorylation of ERK, PSN1
pERK in ASPC1 cells = test: as above; conditions: Homo sapiens, ASPC1, read-out: Inhibition (HTRF IC50) of KRas-mediated Phosphorylation of ERK, AsPC-1
[1] = system: phospho-ERK in MKN1 (WTdep) cells; test: Inhibition of KRas-mediated phosphorylation of ERK (in-cell western); format: cell-based; conditions: Homo sapiens, MKN-1, 3 hours compound, phospho-ERK normalized to GAPDH
Method in brief: (§1)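 Following fixation in formaldehyde and permeabilization in cold methanol, ERK phosphorylated at Thr202/Tyr204 was quantified against GAPDH.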

[2] = system: phospho-ERK in NCI-H727 (G12V) cells; test: as above; format: cell-based; conditions: Homo sapiens, NCI-H727, 3 h, 3 hours compound, phospho-ERK normalized to GAPDH
Method in brief: as §1

[3] = system: phospho-ERK in AsPC-1 (G12D) cells; test: as above; format: cell-based; conditions: Homo sapiens, ASPC1, 3 h, 3 hours compound, phospho-ERK normalized to GAPDH
Method in brief: as §1

[4] = system: phospho-ERK in NCI-H460 (Q61H) cells; test: as above; format: cell-based; conditions: Homo sapiens, NCI-H460, 3 h, 3 hours compound, phospho-ERK normalized to GAPDH
Method in brief: as §1

pERK in H358 cells = test: Inhibition of KRas phosphorylation of ERK (Cisbio HTRF pERK assay); conditions: Homo sapiens, NCI-H358, read-out: Inhibition (HTRF IC50) of KRas-mediated Phosphorylation of ERK, H358
KRas G12V = KRas G12V (Homo sapiens, UniProt P01116, G12V); test: biochemical;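 further: KRas binding measured by TR-FRET displacement at room temperature, IC50 fitted from percent of control values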
KRas G12V, sequence (P01116 1-169 isoform P01116-2 G12V): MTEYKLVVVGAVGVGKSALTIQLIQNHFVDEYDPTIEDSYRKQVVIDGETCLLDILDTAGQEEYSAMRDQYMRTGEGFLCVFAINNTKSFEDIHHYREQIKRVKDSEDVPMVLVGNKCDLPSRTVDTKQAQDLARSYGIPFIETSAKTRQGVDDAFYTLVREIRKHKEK
Protocol: as §2

KRas G12R = KRas G12R (Homo sapiens, UniProt P01116, G12R); test: biochemical;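 further: TR-FRET displacement assay of compound binding to KRas, read after one hour at room temperature, potency from a four-parameter fit of percent-of-control values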
KRas G12R, sequence (P01116 1-169 isoform P01116-2 G12R): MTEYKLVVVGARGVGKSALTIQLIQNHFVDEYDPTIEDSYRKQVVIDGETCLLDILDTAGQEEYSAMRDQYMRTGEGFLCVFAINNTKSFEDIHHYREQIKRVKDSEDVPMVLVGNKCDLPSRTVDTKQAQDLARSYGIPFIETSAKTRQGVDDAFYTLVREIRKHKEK
Protocol: as §2

pERK in H727 cells = test: Inhibition of KRas phosphorylation of ERK (Cisbio HTRF pERK assay); conditions: Homo sapiens, NCI-H727, read-out: Inhibition (HTRF IC50) of KRas-mediated Phosphorylation of ERK, H727
pERK in A549 cells = test: as above; conditions: Homo sapiens, A549, read-out: Inhibition (HTRF IC50) of KRas-mediated Phosphorylation of ERK, A549
pERK in HCT116 cells = test: as above; conditions: Homo sapiens, HCT-116, read-out: Inhibition (HTRF IC50) of KRas-mediated Phosphorylation of ERK, HCT116
pERK in H460 cells = test: as above; conditions: Homo sapiens, NCI-H460, read-out: Inhibition (HTRF IC50) of KRas-mediated Phosphorylation of ERK, H460
Protocol: To harvest cells from flask using 0.05% Trypsin/EDTA solution. Add 10 mL of media to stop trypsinizing. Pipette the cells into a conical bottom 50 mL centrifuge tube and centrifuge 5 min×1000 rpm. • 2. Re-suspend the cell pellet in media, take a cell count, and then adjust the cell density using fresh media. • 3. Seed 6,000 cells into cell culture plate with 50 μL media. […] Incubate cell plate overnight in a 37° C., 5% CO2 incubator. • Compound titrations • 1. Use Tecan to complete the compound addition. Compounds start from 10 uM top, 3-fold dilution, and 10 doses. The final DMSO concentration is 0.8%. Dispensed 0.2 uM Trametinib as Min control. • 2. Incubate cell plate for 3 hrs in the incubator. • Detection with cisbio pERK HTRF kit • 1. […] At the end of the compound treatment, flick-off the media. • 3. Add 35 μL of lysis buffer per well using a Multidrop Combi. Then place on a plate agitator shaking at 300 rpm at 4° C. for 40 mins. • 4. Make up the HTRF antibody buffer. For each assay plate, mix 50 μL of d2-conjugate antibody with 950 μL of detection buffer. Similarly, mix 50 μL of Cryptate antibody with 950 μL of detection buffer. Then mix the two diluted antibodies together. • 5. Dispense 3.4 μL the antibody buffer to wells of an empty assay plate. Seal the plate and centrifuge plate 30 sec×1000 rpm. • 6. At the end of the 4° C. lysis, centrifuge the lysate plates 3 mins×1500 rpm. • 7. Use the Bravo to transfer 13.6 μL of lysate from cell culture plate to assay plate.
Then incubate assay plate for 2 hrs at room temperature. […] At the end of incubation, read plate on the Envision after centrifuging plate 30 sec× • 1000 rpm.

KRas G12C = KRas G12C (Homo sapiens, UniProt P01116, G12C); test: biochemical;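 further: binding to KRas assessed by TR-FRET displacement after one hour incubation at room temperature, potency fitted from percent-of-control values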
KRas G12C, sequence (P01116 1-169 isoform P01116-2 G12C): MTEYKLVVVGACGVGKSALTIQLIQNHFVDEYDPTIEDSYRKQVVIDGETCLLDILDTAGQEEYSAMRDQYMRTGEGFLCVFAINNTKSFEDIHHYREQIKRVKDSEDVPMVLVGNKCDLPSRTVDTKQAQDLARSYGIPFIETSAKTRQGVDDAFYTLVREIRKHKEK
Protocol: as §2

KRas G12A = KRas G12A (Homo sapiens, UniProt P01116, G12A); test: biochemical;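 further: binding to KRas measured by TR-FRET displacement after one hour at room temperature, IC50 from a four-parameter fit of percent-of-control values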
KRas G12A, sequence (P01116 1-169 isoform P01116-2 G12A): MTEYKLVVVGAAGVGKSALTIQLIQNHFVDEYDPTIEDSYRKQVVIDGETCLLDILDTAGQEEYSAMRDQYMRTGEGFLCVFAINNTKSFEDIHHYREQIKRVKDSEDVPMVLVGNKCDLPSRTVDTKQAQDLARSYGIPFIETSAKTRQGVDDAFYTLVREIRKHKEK
Protocol: as §2

KRas WT = KRas WT (Homo sapiens, UniProt P01116); test: biochemical;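 further: binding to KRas read as TR-FRET displacement after a one-hour room-temperature incubation, IC50 derived from percent-of-control values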
KRas WT, sequence (P01116 1-169 isoform P01116-2): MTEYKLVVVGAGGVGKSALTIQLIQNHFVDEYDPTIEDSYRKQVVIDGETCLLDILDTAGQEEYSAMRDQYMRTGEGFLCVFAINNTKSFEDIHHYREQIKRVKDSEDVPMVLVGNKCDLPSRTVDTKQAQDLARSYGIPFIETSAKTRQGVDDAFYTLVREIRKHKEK
Protocol: as §2

KRas G12S = KRas G12S (Homo sapiens, UniProt P01116, G12S); test: biochemical;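 further: TR-FRET displacement binding to KRas, read after one hour incubation at room temperature, IC50 from four-parameter fit of percent of control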
KRas G12S, sequence (P01116 1-169 isoform P01116-2 G12S): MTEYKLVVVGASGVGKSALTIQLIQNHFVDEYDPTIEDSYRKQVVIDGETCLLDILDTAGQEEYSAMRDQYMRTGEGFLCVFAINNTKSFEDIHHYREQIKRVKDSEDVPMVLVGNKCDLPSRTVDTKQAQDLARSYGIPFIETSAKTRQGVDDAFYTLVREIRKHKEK
Protocol: as §2

IC50 (pERK in MKN1 cells)	IC50 (KRas G12D)	IC50 (pERK in PSN1 cells)	IC50 (pERK in ASPC1 cells)	IC50 (pERK in H358 cells)	IC50 (KRas G12V)	IC50 (KRas G12R)	IC50 (pERK in H727 cells)	IC50 (pERK in A549 cells)	IC50 (pERK in HCT116 cells)	IC50 (pERK in H460 cells)	IC50 (KRas G12C)	IC50 (KRas G12A)	IC50 (KRas WT)	IC50 (KRas G12S)	Structure (SMILES)	IC50 [1]	IC50 [2]	IC50 [3]	IC50 [4]
0.007 µM	≤ 0.002 µM	1.38 µM	0.038 µM	0.014 µM	≤ 0.002 µM	≤ 0.002 µM	0.089 µM								CCc1c(F)ccc2cc(O)cc(-c3ncc4c(N5CCC[C@@]6(CNC(=O)N6)C5)nc(OC[C@@]56CCCN5C[C@H](F)C6)nc4c3F)c12 [Example 300, (R)-7-(7-(8-ethyl-7-fluoro-3-hydroxynaphthalen-1-yl)-8-fluoro-2-(((2R,7aS)-2-fluorohexahydro-1H-pyrrolizin-7a-yl)methoxy)pyrido[4,3-d]pyrimidin-4-yl)-1,3,7triazaspiro[4.5]decan-2-one]	37 nM	372 nM	251 nM	71 nM
0.007 µM	≤ 0.002 µM	1.23 µM	0.007 µM	0.015 µM	≤ 0.002 µM	0.003 µM	0.09 µM	0.044 µM	0.091 µM	0.039 µM					CCc1c(F)ccc2cc(O)cc(-c3ncc4c(N5CCCC(O)(C(F)F)C5)nc(OC[C@@]56CCCN5C[C@H](F)C6)nc4c3F)c12 (stereo partly shown) [Example 184]		201 nM	66 nM	30 nM
0.003 µM	≤ 0.002 µM	1.35 µM	0.02 µM	0.004 µM	≤ 0.002 µM	≤ 0.002 µM	0.034 µM	0.063 µM	0.686 µM	0.055 µM					CCc1c(F)ccc2cc(O)cc(-c3ncc4c(N5CCC[C@]6(CC(=O)N6)C5)nc(OC[C@@]56CCCN5C[C@H](F)C6)nc4c3F)c12 (single isomer, unassigned) [Example 194]	7 nM	89 nM	92 nM	65 nM
0.015 µM	≤ 0.002 µM	2.39 µM	0.023 µM	0.012 µM	≤ 0.002 µM	≤ 0.002 µM	0.042 µM	0.223 µM	0.187 µM	0.118 µM					C#Cc1c(F)ccc2cc(O)cc(-c3ncc4c(N5CCOC[C@@](C)(O)C5)nc(OC[C@@]56CCCN5C[C@H](F)C6)nc4c3F)c12 [Example 201, (S)-4-(7-(8-ethynyl-7-fluoro-3-hydroxynaphthalen-1-yl)-8-fluoro-2-(((2R,7aS)-2-fluorohexahydro-1H-pyrrolizin-7a-yl)methoxy)pyrido[4,3-d]pyrimidin-4-yl)-6-methyl-1,4-oxazepan-6-ol]	2 nM	110 nM	91 nM	100 nM
0.008 µM	≤ 0.002 µM	0.409 µM	0.014 µM	0.001 µM	≤ 0.002 µM	≤ 0.002 µM	0.005 µM	0.018 µM	0.009 µM	0.021 µM	≤ 0.002 µM	≤ 0.002 µM	≤ 0.002 µM	≤ 0.002 µM	C#Cc1c(F)ccc2cc(O)cc(-c3ncc4c(N5C[C@@H]6C[C@H](C5)[C@H](O)C6)nc(OC[C@@]56CCCN5C[C@H](F)C6)nc4c3F)c12 [Example 388, (1R,5R,6R)-3-(7-(8-ethynyl-7-fluoro-3-hydroxynaphthalen-1-yl)-8-fluoro-2-(((2R,7aS)-2-fluorohexahydro-1II-pyrrolizin-7a-yl)methoxy)pyrido[4,3-d]pyrimidin-4-yl)-3-azabicyclo[3,2,1]octan-6-ol]		16 nM		16 nM
0.023 µM	≤ 0.002 µM	≥ 10 µM	0.057 µM	0.112 µM	≤ 0.002 µM	≤ 0.002 µM	0.348 µM		0.62 µM	0.183 µM					CCc1c(F)ccc2cc(O)cc(-c3ncc4c(N5CC6C(=O)NC(=O)C6C5)nc(OC[C@@]56CCCN5C[C@H](F)C6)nc4c3F)c12 (stereo partly shown) [Example 197]	11 nM	841 nM	144 nM	293 nM
0.008 µM	≤ 0.002 µM	≥ 10 µM	0.01 µM	0.018 µM	≤ 0.002 µM	≤ 0.002 µM	0.026 µM	0.138 µM	0.274 µM	0.253 µM	≤ 0.002 µM	≤ 0.002 µM	≤ 0.002 µM	≤ 0.002 µM	CCc1c(F)ccc2cc(O)cc(-c3ncc4c(N5CCCn6nc(C(=O)N(C)C)cc6C5)nc(OC[C@@]56CCCN5C[C@H](F)C6)nc4c3F)c12 [Example 326, 5-(7-(8-ethyl-7-fluoro-3-hydroxynaphthalen-1-yl)-8-fluoro-2-(((2R,7aS)-2-fluorohexahydro-1H-pyrrolizin-7a-yl)methoxy)pyrido[4,3-d]pyrimidin-4-yl)-N,N-dimethyl-5,6,7,8-tetrahydro-4H-pyrazolo[1,5-a][1,4]diazepine-2-carboxamide]				
0.002 µM	0.004 µM	8.33 µM	0.054 µM	0.026 µM	≤ 0.002 µM	0.003 µM	0.037 µM	0.113 µM	0.026 µM	0.057 µM					CCc1c(F)ccc2cc(O)cc(-c3ncc4c(N5CCCCCC(S(C)(=O)=O)C5)nc(OC[C@@]56CCCN5C[C@H](F)C6)nc4c3F)c12 (stereo partly drawn) [Example 309, 5-ethyl-6-fluoro-4-(8-fluoro-2-(((2R,7aS)-2-fluorohexahydro-1H-pyrrolizin-7a-yl)methoxy)-4-(3-(methylsulfonyl)azocan-1-yl)pyrido[4,3-d]pyrimidin-7-yl)naphthalen-2-ol]		272 nM	176 nM	59 nM
0.014 µM	≤ 0.002 µM	3.93 µM	0.054 µM	0.046 µM	≤ 0.002 µM	≤ 0.002 µM	0.199 µM		0.456 µM	0.216 µM					CCc1c(F)ccc2cc(O)cc(-c3ncc4c(N5CCC[C@@](C)(O)C5)nc(OC[C@@]56CCCN5[C@@H](CO)CC6)nc4c3F)c12 [Example 301, (R)-1-(7-(8-ethyl-7-fluoro-3-hydroxynaphthalen-1-yl)-8-fluoro-2-(((3R,7aS)-3-(hydroxymethyl)tetrahydro-1H-pyrrolizin-7a(5H)-yl)methoxy)pyrido[4,3-d]pyrimidin-4-yl)-3-methylpiperidin-3-ol]	15 nM	520 nM	216 nM	416 nM
